Experimental data as given in ChEMBL document CHEMBL1641539 (Bioorg Med Chem Lett, 2011).

Columns and labels:
[1] = target: Tyrosine-protein kinase BTK (Homo sapiens) (UniProt Q06187); test: Inhibition of human BTK at 10 uM after 60 mins by TR-FRET assay; values are per cent of control
[2] = target: NUAK family SNF1-like kinase 1 (Homo sapiens) (UniProt O60285); test: Inhibition of human ARK5 at 10 uM after 60 mins by TR-FRET assay; values are per cent of control
[3] = target: Death-associated protein kinase 2 (Homo sapiens) (UniProt Q9UIK4); test: Inhibition of human DAPK2 at 10 uM after 60 mins by TR-FRET assay; values are per cent of control
[4] = target: Dual specificity protein kinase CLK2 (Homo sapiens) (UniProt P49760); test: Inhibition of human CLK2 at 10 uM after 60 mins by TR-FRET assay; values are per cent of control
[5] = target: Dual specificity mitogen-activated protein kinase kinase 4 (Mus musculus) (UniProt P47809); test: Inhibition of mouse MKK4 at 10 uM after 60 mins by TR-FRET assay; values are per cent of control
[6] = target: Focal adhesion kinase 1 (Homo sapiens) (UniProt Q05397); test: Inhibition of human FAK at 10 uM after 60 mins by TR-FRET assay; values are per cent of control
[7] = target: T1, Serine/threonine-protein kinase Chk1 (Homo sapiens) (UniProt O14757); test: Inhibition of human CHK1 at 10 uM after 60 mins by TR-FRET assay; values are per cent of control
T1 sequence (whole entry): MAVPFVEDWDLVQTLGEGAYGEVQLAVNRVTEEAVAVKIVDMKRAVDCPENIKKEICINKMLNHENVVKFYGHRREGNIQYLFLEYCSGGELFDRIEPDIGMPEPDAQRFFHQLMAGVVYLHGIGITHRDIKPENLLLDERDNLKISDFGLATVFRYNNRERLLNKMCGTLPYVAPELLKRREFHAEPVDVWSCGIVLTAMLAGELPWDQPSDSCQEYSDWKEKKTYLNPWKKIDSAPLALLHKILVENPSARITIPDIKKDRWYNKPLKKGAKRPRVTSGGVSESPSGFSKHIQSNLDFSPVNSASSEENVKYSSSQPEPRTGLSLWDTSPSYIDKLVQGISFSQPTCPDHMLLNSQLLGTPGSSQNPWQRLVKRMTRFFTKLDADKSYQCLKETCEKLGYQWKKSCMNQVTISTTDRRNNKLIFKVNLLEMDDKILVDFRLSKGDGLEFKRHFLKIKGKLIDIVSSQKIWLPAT

[8] = target: Cyclin-dependent kinase 2/cyclin A (Homo sapiens) (UniProt P24941+P20248+P78396); test: Inhibition of human CDK2/cyclinA at 10 uM after 60 mins by TR-FRET assay; values are per cent of control
[9] = target: Proto-oncogene tyrosine-protein kinase ROS (Homo sapiens) (UniProt P08922); test: Inhibition of human Ros at 10 uM after 60 mins by TR-FRET assay; values are per cent of control
[10] = target: Serine/threonine-protein kinase PAK 4 (Homo sapiens) (UniProt O96013); test: Inhibition of human PAK4 at 10 uM after 60 mins by TR-FRET assay; values are per cent of control
[11] = target: Insulin receptor-related protein (Homo sapiens) (UniProt P14616); test: Inhibition of human IRR at 10 uM after 60 mins by TR-FRET assay; values are per cent of control
[12] = target: Inhibitor of nuclear factor kappa-B kinase subunit alpha (Homo sapiens) (UniProt O15111); test: Inhibition of human IKKalpha at 10 uM after 60 mins by TR-FRET assay; values are per cent of control
[13] = test system: Epidermal growth factor receptor (Homo sapiens), P00533 [L861Q]; test: Inhibition of human EGFR L861Q mutant at 10 uM after 60 mins by TR-FRET assay; assay type: protein assay; conditions: values are per cent of control
[14] = target: T2, Serine/threonine-protein kinase 3 (Homo sapiens) (UniProt Q13188); test: Inhibition of human MST2 at 10 uM after 60 mins by TR-FRET assay; conditions: values are per cent of control
T2 sequence (whole entry): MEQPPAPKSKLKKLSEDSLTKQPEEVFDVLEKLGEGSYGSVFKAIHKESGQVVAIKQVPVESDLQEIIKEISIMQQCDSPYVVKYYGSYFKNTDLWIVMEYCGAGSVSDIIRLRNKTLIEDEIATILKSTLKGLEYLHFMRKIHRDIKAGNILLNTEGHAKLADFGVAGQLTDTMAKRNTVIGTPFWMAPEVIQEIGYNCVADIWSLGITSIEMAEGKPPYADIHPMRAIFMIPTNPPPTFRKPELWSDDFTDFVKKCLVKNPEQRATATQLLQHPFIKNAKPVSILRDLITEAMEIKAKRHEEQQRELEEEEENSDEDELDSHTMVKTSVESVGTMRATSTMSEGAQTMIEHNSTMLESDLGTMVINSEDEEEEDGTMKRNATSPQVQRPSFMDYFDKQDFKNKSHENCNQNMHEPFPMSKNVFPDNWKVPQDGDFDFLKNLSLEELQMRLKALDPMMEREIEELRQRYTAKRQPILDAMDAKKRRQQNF

[15] = target: Serine/threonine-protein kinase Nek3 (Homo sapiens) (UniProt P51956); test: Inhibition of human NEK3 at 10 uM after 60 mins by TR-FRET assay; values are per cent of control
[16] = target: Interleukin-1 receptor-associated kinase 4 (Homo sapiens) (UniProt Q9NWZ3); test: Inhibition of human IRAK4 at 10 uM after 60 mins by TR-FRET assay; conditions: values are per cent of control
[17] = target: Homeodomain-interacting protein kinase 2 (Homo sapiens) (UniProt Q9H2X6); test: Inhibition of human HIPK2 at 10 uM after 60 mins by TR-FRET assay; values are per cent of control
[18] = target: Serine/threonine-protein kinase pim-1 (Homo sapiens) (UniProt P11309); test: Inhibition of human Pim-1 at 10 uM after 60 mins by TR-FRET assay; values are per cent of control
[19] = target: Mitogen-activated protein kinase kinase kinase 7 (Homo sapiens) (UniProt O43318); test: Inhibition of human TAK1 at 10 uM after 60 mins by TR-FRET assay; values are per cent of control
[20] = target: Serine/threonine-protein kinase MRCK beta (Homo sapiens) (UniProt Q9Y5S2); test: Inhibition of human MRCKbeta at 10 uM after 60 mins by TR-FRET assay; values are per cent of control

Sequence of Tyrosine-protein kinase BTK (Homo sapiens) (Q06187 whole entry): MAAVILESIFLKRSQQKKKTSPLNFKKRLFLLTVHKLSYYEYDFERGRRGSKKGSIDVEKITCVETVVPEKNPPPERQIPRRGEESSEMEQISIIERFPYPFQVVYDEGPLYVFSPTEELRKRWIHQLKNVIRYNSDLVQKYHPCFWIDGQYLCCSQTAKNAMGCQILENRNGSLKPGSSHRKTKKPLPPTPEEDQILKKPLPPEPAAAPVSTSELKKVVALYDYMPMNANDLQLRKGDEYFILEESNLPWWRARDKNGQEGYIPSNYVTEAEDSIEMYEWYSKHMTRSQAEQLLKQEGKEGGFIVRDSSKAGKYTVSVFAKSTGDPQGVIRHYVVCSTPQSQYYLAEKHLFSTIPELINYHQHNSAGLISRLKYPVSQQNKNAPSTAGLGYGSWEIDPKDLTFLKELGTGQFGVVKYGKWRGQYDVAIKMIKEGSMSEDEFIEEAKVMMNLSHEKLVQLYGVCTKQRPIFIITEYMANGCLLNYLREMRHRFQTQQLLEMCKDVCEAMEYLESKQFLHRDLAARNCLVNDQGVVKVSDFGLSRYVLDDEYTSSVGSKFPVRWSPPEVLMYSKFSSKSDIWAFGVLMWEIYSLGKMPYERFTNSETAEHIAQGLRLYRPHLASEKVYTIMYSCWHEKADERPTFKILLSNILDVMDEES
Sequence of Death-associated protein kinase 2 (Homo sapiens) (Q9UIK4 whole entry, looked up): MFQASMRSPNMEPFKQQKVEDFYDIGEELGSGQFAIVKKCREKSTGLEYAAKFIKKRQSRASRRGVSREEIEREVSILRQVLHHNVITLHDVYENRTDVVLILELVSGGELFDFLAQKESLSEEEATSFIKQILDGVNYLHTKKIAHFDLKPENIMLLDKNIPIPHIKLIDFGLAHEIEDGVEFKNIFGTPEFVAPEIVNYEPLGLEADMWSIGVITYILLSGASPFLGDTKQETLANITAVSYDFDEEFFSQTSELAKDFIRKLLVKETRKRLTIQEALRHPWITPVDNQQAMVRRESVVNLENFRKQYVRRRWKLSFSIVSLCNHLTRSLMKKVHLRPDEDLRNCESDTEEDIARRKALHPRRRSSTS
Sequence of Dual specificity mitogen-activated protein kinase kinase 4 (Mus musculus) (P47809 whole entry): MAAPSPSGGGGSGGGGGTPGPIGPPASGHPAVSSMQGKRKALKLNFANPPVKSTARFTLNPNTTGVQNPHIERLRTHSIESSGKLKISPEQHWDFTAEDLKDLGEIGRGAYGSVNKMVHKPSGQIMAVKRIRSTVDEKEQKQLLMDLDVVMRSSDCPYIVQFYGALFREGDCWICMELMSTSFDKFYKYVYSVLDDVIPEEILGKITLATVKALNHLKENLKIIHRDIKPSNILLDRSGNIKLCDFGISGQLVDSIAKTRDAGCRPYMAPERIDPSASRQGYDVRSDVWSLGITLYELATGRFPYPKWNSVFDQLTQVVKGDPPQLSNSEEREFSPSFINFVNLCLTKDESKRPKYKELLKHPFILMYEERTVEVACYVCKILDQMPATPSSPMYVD
Sequence of Focal adhesion kinase 1 (Homo sapiens) (Q05397 2-1052 limits assumed): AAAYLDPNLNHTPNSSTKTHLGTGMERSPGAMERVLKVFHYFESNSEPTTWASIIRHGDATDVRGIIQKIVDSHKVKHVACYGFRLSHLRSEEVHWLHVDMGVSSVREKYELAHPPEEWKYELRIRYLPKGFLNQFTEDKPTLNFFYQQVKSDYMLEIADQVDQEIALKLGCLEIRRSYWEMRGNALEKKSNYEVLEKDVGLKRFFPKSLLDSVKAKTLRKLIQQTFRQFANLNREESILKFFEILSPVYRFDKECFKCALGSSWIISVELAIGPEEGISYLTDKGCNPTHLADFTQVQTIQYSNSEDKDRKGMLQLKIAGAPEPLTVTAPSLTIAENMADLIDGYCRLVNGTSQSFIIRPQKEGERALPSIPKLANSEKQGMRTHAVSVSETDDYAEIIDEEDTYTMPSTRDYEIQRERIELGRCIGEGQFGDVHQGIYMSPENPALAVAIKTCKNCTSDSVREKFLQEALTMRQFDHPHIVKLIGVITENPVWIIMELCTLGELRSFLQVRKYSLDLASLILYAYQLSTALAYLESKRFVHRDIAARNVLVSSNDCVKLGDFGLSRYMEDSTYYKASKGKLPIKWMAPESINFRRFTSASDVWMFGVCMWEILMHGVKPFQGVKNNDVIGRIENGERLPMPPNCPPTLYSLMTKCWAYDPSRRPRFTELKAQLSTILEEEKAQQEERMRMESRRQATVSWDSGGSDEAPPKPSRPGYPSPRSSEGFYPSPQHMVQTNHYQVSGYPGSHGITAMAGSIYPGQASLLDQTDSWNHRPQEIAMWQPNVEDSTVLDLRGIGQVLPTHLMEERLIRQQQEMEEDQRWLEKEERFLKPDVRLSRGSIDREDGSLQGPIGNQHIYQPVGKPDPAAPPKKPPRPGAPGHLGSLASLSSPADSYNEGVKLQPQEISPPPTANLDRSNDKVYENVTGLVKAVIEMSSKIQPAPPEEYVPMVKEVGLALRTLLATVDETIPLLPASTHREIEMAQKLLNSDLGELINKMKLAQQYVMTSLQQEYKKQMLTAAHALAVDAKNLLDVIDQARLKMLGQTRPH
Sequence of Interleukin-1 receptor-associated kinase 4 (Homo sapiens) (Q9NWZ3 whole entry): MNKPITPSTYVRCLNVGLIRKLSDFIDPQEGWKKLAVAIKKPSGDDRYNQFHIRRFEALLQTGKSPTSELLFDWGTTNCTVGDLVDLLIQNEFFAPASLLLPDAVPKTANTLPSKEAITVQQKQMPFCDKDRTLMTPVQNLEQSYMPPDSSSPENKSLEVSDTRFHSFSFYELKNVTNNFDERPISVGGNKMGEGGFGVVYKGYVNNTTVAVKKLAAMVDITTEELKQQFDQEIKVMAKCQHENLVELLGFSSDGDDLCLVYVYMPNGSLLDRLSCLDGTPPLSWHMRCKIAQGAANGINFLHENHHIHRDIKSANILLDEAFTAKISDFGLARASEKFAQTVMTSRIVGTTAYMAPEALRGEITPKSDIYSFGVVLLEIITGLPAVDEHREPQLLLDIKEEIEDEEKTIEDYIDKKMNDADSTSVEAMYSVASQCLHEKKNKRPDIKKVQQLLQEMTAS
Sequence of Mitogen-activated protein kinase kinase kinase 7 (Homo sapiens) (O43318 whole entry): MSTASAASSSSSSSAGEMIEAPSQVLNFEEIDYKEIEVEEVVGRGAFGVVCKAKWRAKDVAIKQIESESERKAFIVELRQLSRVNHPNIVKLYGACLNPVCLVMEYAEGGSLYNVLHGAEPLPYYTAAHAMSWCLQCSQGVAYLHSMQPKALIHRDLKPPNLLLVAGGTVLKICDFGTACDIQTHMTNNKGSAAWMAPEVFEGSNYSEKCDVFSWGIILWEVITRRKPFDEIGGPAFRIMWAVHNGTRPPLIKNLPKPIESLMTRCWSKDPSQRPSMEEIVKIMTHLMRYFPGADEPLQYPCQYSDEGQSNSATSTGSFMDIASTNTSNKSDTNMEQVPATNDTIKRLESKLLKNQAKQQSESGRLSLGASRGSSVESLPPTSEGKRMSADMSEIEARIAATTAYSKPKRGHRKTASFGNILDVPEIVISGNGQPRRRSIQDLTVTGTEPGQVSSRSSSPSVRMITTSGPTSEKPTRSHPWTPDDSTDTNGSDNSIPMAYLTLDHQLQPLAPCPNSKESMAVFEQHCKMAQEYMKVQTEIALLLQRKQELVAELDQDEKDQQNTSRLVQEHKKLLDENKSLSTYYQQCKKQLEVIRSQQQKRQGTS
Sequence of Epidermal growth factor receptor (Homo sapiens), P00533 [L861Q] (P00533 whole entry L861Q): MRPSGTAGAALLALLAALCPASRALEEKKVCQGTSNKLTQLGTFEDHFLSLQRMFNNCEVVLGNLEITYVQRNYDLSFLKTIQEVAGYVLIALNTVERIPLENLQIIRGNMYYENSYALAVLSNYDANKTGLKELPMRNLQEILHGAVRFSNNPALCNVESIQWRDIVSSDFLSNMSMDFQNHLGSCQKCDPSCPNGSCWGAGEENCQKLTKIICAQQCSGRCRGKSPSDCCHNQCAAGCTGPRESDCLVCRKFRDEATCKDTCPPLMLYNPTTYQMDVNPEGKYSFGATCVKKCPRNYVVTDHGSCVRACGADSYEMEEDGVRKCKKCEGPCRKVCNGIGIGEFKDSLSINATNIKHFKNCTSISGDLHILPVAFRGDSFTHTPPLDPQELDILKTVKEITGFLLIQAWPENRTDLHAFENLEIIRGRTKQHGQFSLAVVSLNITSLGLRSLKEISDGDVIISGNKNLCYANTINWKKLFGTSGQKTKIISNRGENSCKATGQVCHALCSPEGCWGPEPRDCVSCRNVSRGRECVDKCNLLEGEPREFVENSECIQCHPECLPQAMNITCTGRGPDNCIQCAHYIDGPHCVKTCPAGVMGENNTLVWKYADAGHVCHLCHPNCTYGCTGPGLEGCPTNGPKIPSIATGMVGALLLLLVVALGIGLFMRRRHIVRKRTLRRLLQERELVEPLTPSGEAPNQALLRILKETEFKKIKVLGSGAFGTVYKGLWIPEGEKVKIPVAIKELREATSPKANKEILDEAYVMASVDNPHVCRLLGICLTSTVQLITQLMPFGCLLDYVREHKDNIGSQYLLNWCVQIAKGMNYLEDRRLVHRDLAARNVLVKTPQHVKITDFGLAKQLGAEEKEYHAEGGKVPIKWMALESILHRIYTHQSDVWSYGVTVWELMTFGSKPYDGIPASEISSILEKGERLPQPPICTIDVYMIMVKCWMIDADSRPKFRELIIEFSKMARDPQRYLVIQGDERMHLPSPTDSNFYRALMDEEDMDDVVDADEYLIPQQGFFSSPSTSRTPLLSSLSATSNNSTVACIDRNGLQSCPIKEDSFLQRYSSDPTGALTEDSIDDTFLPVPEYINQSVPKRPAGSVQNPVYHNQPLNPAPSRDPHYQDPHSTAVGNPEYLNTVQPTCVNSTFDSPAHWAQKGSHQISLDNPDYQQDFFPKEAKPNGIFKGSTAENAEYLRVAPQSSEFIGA

S=c1[nH]nc(-c2ccncc2)n1-c1ccc2ccccc2c1
residual activity [1]: 118% | residual activity [2]: 103% | residual activity [3]: 108% | residual activity [4]: 104% | residual activity [5]: 106% | residual activity [6]: 106% | residual activity [7]: 113% | residual activity [8]: 114% | residual activity [9]: 100% | residual activity [10]: 112% | residual activity [11]: 111% | residual activity [12]: 100% | residual activity [13]: 64% | residual activity [14]: 103% | residual activity [15]: 118% | residual activity [16]: 114% | residual activity [17]: 95% | residual activity [18]: 96% | residual activity [19]: 89% | residual activity [20]: 106%
